Measured values from the supplement of paper PMC4862054.

Columns and labels:
[1] = test system: MDA-MB-453; assay: normalised viability (% of control), CellTiter-Blue; higher = more viable cells (about 100 = DMSO control); settings: 10000 nM; incubation time: 72 h
Method: (§1)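 DSRT, CellTiter-Blue viability, 72 h incubation. Signal is normalised to DMSO and benzethonium chloride controls. Value is the normalised response at dose 9.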

[2] = test system: CAL-85-1; assay: as above; settings: 10000 nM; incubation time: 72 h
Method: as §1

[3] = test system: CAL-51; assay: as above; settings: 10000 nM; incubation time: 72 h
Method: as §1

[4] = test system: DU-4475; assay: as above; settings: 10000 nM; incubation time: 72 h
Method: as §1

[5] = test system: HDQ-P1; assay: as above; settings: 10000 nM; incubation time: 72 h
Method: as §1

[6] = test system: CAL-148; assay: as above; settings: 10000 nM; incubation time: 72 h
Method: as §1

[7] = test system: MDA-MB-453; assay: as above; settings: 3000 nM; incubation time: 72 h
Method: (§2)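 DSRT, CellTiter-Blue viability, 72 h incubation. Signal is normalised to DMSO and benzethonium chloride controls. Value is the normalised response at dose 8.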

[8] = test system: CAL-85-1; assay: as above; settings: 3000 nM; incubation time: 72 h
Method: as §2

[9] = test system: CAL-51; assay: as above; settings: 3000 nM; incubation time: 72 h
Method: as §2

[10] = test system: DU-4475; assay: as above; settings: 3000 nM; incubation time: 72 h
Method: as §2

[11] = test system: HDQ-P1; assay: as above; settings: 3000 nM; incubation time: 72 h
Method: as §2

[12] = test system: CAL-148; assay: as above; settings: 3000 nM; incubation time: 72 h
Method: as §2

[13] = test system: MCF-10A; assay: drug sensitivity score (DSS), CellTox Green (DSS (AUC-based score)); higher = stronger drug effect (viability inhibition or cytotoxicity); extreme values may be limits of the assay; settings: incubation time: 72 h
In short: (§3)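 Normalisation on every plate relied on 0.1 % DMSO and a positive kill control. The plates, 384-well format, held compound at 5 concentrations 10-fold apart across a compound-specific 10,000-fold range, and breast cancer cell lines in 20 µl suspension were incubated on them for 72 h before CellTox Green and then CellTiter-Glo readings. The drug sensitivity score derives from the area under the fitted dose-response curve.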

[14] = test system: MDA-MB-453; assay: as above; settings: incubation time: 72 h
In short: as §3

[15] = test system: MFM-223; assay: as above; settings: incubation time: 72 h
In short: as §3

[16] = test system: CAL-85-1; assay: as above; settings: incubation time: 72 h
In short: as §3

[17] = test system: Hs578T; assay: as above; settings: incubation time: 72 h
In short: as §3

[18] = test system: BT-549; assay: as above; settings: incubation time: 72 h
In short: as §3

[19] = test system: CAL-51; assay: as above; settings: incubation time: 72 h
In short: as §3

[20] = test system: MDA-MB-436; assay: as above; settings: incubation time: 72 h
In short: as §3

[21] = test system: CAL-120; assay: as above; settings: incubation time: 72 h
In short: as §3

[22] = test system: DU-4475; assay: as above; settings: incubation time: 72 h
In short: as §3

[23] = test system: HCC1937; assay: as above; settings: incubation time: 72 h
In short: as §3

[24] = test system: MDA-MB-468; assay: as above; settings: incubation time: 72 h
In short: as §3

[25] = test system: HDQ-P1; assay: as above; settings: incubation time: 72 h
In short: as §3

[26] = test system: MDA-MB-231; assay: as above; settings: incubation time: 72 h
In short: as §3

[27] = test system: CAL-148; assay: as above; settings: incubation time: 72 h
In short: as §3

SMILES | normalised viability [1] | normalised viability [2] | normalised viability [3] | normalised viability [4] | normalised viability [5] | normalised viability [6] | normalised viability [7] | normalised viability [8] | normalised viability [9] | normalised viability [10] | normalised viability [11] | normalised viability [12] | drug sensitivity score [13] | drug sensitivity score [14] | drug sensitivity score [15] | drug sensitivity score [16] | drug sensitivity score [17] | drug sensitivity score [18] | drug sensitivity score [19] | drug sensitivity score [20] | drug sensitivity score [21] | drug sensitivity score [22] | drug sensitivity score [23] | drug sensitivity score [24] | drug sensitivity score [25] | drug sensitivity score [26] | drug sensitivity score [27]
Nc1nc2[nH]cc(CCc3ccc(C(=O)N[C@@H](CCC(=O)O)C(=O)O)cc3)c2c(=O)[nH]1 [Pemetrexed] | 92.6% | 55.4% | 91% | 99.7% | 106% | 66.5% | 83% | 62.6% | 109% | 124% | 109% | 99.3% | 0.385 | 0 | 0 | 0 | 0.581 | 0 | 0 | 0 | 0 | 0 | 0 | 1.29 | 0 | 2.43 | 0
CC1=C(/C=C/C(C)=C/C=C/C(C)=C/C(=O)O)C(C)(C)CCC1 [Tretinoin] | 96.9% | 90.6% | 98% | 94.3% | 122% | 78.3% | 94.1% | 88.5% | 90.8% | 99% | 121% | 80.1% | 1.81 | 0 | 0 | 1.14 | 7.23 | 0 | 0 | 0 | 0 | 0 | 0 | 0 | 0 | 3.64 | 0
Oc1ncc(N(CCCl)CCCl)c(O)n1 [Uracil mustard] | 104% | 93.9% | 91.6% | 94.9% | 110% | 105% | 92.8% | 93.8% | 99.6% | 105% | 115% | 113% | 0 | 0 | 0 | 0 | 0 | 0 | 0 | 0 | 0 | 0 | 0 | 0 | 0 | 0 | 0
CCCCC(=O)OCC(=O)[C@]1(O)Cc2c(O)c3c(c(O)c2[C@@H](O[C@H]2C[C@H](NC(=O)C(F)(F)F)[C@H](O)[C@H](C)O2)C1)C(=O)c1c(OC)cccc1C3=O [Valrubicin] | 16.2% | 18.6% | 2.32% | -0.99% | 52.9% | 1.24% | 18.3% | 31.2% | 6.83% | -1.61% | 45.8% | 0.71% | 0 | 0 | 0 | 0 | 0.113 | 0 | 8.29 | 3.14 | 0.113 | 0 | 0 | 5.83 | 0 | 0 | 10.8
CCCS(=O)(=O)Nc1ccc(F)c(C(=O)c2c[nH]c3ncc(-c4ccc(Cl)cc4)cc23)c1F [Vemurafenib] | 75.5% | 78.3% | 103% | -0.32% | 68.6% | 94.1% | 87.3% | 75.7% | 107% | 4.66% | 83.1% | 89.1% | 2.59 | 0 | 0 | 0 | 0 | 0 | 8.51 | 0 | 0 | 1.82 | 0 | 0 | 0 | 0.329 | 0
